Earlier results on one compound are cited in US20210315194A1, “MOSQUITO ATTRACTANT FORMULATIONS AND USES THEREOF” (ACTIVE SCENT AB, priority 2018, published 2021).

For this series, the system named is wild egg-laying Culex mosquitoes. The note with it: traps baited with 1 mg of the compound.

The structures appear in SMILES notation.

`CCCCCCCCC=O` [nonanal]: the “attraction to baited traps” value is “attract”.
